This is an account of results in ChEMBL document CHEMBL3301555, “MMV Malaria Box screening in pLDH viability assay against Plasmodium falciparum gametocytes”.

The structures appear in SMILES notation.

In assay [1] the test system is Plasmodium falciparum. The assay is described as follows: MMV: Measure of pLDH activity as indication of parasite viability. Gametocytogenesis of 3D7 Plasmodium falciparum strain was induced in vitro and asexual parasites were depleted with N-acetylglucosamine. Gametocytes were treated with dihydroartemisinin, epoxomicin, methylene blue, primaquine, puromycin or chloroquine in 96-well plates and the pLDH activity was evaluated using a modified Makler protocol. Mosquito infectivity was measured by the standard membrane feeding assay. More on the design: concentration or dose not given beside the values. In kind it is functional.

Assay [2] relates to Plasmodium falciparum. The assay is described as follows: MMV: Measure of pLDH activity as indication of parasite viability. Gametocytogenesis of 3D7 Plasmodium falciparum strain was induced in vitro and asexual parasites were depleted with N-acetylglucosamine. Gametocytes were treated with dihydroartemisinin, epoxomicin, methylene blue, primaquine, puromycin or chloroquine in 96-well plates and the pLDH activity was evaluated using a modified Makler protocol. Mosquito infectivity was measured by the standard membrane feeding assay. The IC50 value was extrapolated as the concentration that induced a 50% inhibition of gametocyte viability. The format is functional, organism-based.

As a reminder, the IC50 is the point on the concentration scale where inhibition reaches its midpoint. Turning to `CN1CCN(c2ccc(Nc3c4ccccc4nc4ccccc34)cc2)CC1`, in assay [1], the “Growth Inhibition” value was 62.7432%. The IC50 in assay [2] is 732 nM. Turning to `COc1ccc(Nc2nc(N/N=C/c3ccc(O)cc3)nc(Nc3ccc([N+](=O)[O-])cc3)n2)cc1`, the “Growth Inhibition” value in assay [1] came to 24.1364%.

With `CN(C)CCCNc1c2ccccc2nc2ccccc12`, in assay [1], the “Growth Inhibition” value is reported as 9.2618%. Besides, the IC50 in assay [2] is 3140 nM. For `COc1ccc(-c2cc3c(nn2)-c2ccccc2C3=O)cc1`, the “Growth Inhibition” value in assay [1] is listed as 49.5345%. For the same compound, in assay [2], the IC50 was 5010 nM. On to `COc1ccc(C2c3ccc4ccccc4c3Oc3ncn(CCCN(C)C)c(=N)c32)cc1` (stereo not given), for which, in assay [1], the “Growth Inhibition” value came to 88.163%. Further, the IC50 in assay [2] is 696 nM.

In the case of `N=c1n(CCN2CCCCC2)c2ccccc2n1CC(=O)c1ccc(Cl)c(Cl)c1`, the “Growth Inhibition” value in assay [1] came out at 13.8938%. Take `Cc1sc(NC(=O)c2ccco2)c(C(c2cccnc2)N2CCC(Cc3ccccc3)CC2)c1C` (stereo not given): the “Growth Inhibition” value in assay [1] was 4.6056%.

Take `COc1cc(C(=O)Nc2nc3c(cc4c5c(cccc53)CC4)s2)cc(OC)c1OC`: the “Growth Inhibition” value in assay [1] is listed as 2.6754%. The same measure, in the same setting: in the case of `O=C(NNc1cc(N2CCCC2)nc(N2CCCC2)n1)c1ccccc1` it was 2.419%.

In the case of `CC(C)(C)CC(C)(C)NCC(O)COc1ccc(Cl)cc1Cl` (stereo not given), in assay [1], the “Growth Inhibition” value was 54.9615%. In addition, the IC50 in assay [2] was 5620 nM. Regarding `Cc1cccc(-n2ncc3c(O)nc(-n4nc(C)cc4NC(=O)c4cc5ccccc5o4)nc32)c1`, the “Growth Inhibition” value in assay [1] is reported as 60.253%. Moreover, in assay [2], the IC50 is 1620 nM. For the compound `COC(=O)c1ccc(Cl)c2c1C1C=CCC1C(c1cccc3ccccc13)N2` (stereo not given), in assay [1], the “Growth Inhibition” value was -3.8852%.

Regarding `O=C(CCc1ccccc1)c1ccccc1OCC(O)CN1CCCCC1` (stereo not given), the “Growth Inhibition” value in assay [1] turned out to be 24.7266%. For `Cc1ccc(Nc2nc(-c3ccccn3)cs2)cc1`, the “Growth Inhibition” value in assay [1] is recorded as 62.3104%. Further, the concentration for half-maximal inhibition (IC50) in assay [2] was 1380 nM. Take `OC1=C2C(=Nc3ccccc3SC2c2ccccc2)c2ccccc21` (stereo not given): in assay [1], the “Growth Inhibition” value was 34.196%. On to `Cl.N=c1n(CCN2CCCCC2)c2ccccc2n1CC(O)c1cccc(Br)c1` (stereo not given), for which the “Growth Inhibition” value in assay [1] came out at 59.1366%. Further, in assay [2], the IC50 was 3930 nM. As to `COc1cc(C(=O)Nc2ccc(-c3nc4ccccc4[nH]3)cc2)cc(OC)c1OC`, the “Growth Inhibition” value in assay [1] is on record as 13.7592%. Take `COc1cccc(NC(=O)[C@H](C(C)C)n2c(=O)[nH]c3ccccc3c2=O)c1`: in assay [1], the “Growth Inhibition” value is reported as 63.4258%. Also, the IC50 in assay [2] was 2750 nM. The matching figures for `COC(=O)c1ccc(C2C3=C(O)CC(c4ccc(F)cc4)CC3=Nc3ccccc3N2C(=O)c2ccccc2)cc1` (stereo not given): 56.5126% and 6520 nM. The corresponding values for `CN(C)CCCNCc1ccc(-c2ccc(F)c(Cl)c2)o1.Cl` are 63.9166% and 2210 nM. As to `Cc1sc2ncnc(Sc3nc4ccccc4[nH]3)c2c1C`, the “Growth Inhibition” value in assay [1] came to 79.0368%. Moreover, in assay [2], the IC50 is 2640 nM.

With `COc1ccc(C(=O)NC(c2ccc(Cl)cc2Cl)c2cc(Cl)c3cccnc3c2O)cc1` (stereo not given), the “Growth Inhibition” value in assay [1] came to 50.4754%. The IC50 in assay [2] is 3810 nM. The matching figures for `CCOc1ccc(CN2CCN(CC(O)COc3ccc(OCC(O)CN4CCN(Cc5ccc(OCC)cc5)CC4)cc3)CC2)cc1` (stereo not given): 89.2205% and 1340 nM. Turning to `O=C(NC(c1ccccc1)c1ccc2cccnc2c1O)c1ccccc1` (stereo not given), the “Growth Inhibition” value in assay [1] was 59.5194%. The IC50 in assay [2] was 2650 nM.

Regarding `CCCCNc1nc(NC(C)(C)C)nc(NC(C)(C)C)n1`, the “Growth Inhibition” value in assay [1] was found to be 40.1594%. On to `Cl.c1ccc2c(NCCCCCCNc3c4c(nc5ccccc35)CCCC4)c3c(nc2c1)CCCC3`, for which the “Growth Inhibition” value in assay [1] stood at 77.595%. Moreover, the IC50 in assay [2] was 2390 nM. As to `CCN(CC)CCn1c(=N)n(CC(O)c2ccc(Cl)c(Cl)c2)c2ccccc21.Cl` (stereo not given), the “Growth Inhibition” value in assay [1] is given as 75.2902%. The IC50 in assay [2] was 2080 nM. The corresponding values for `O=C(NCCCN1CCC(N2CCCCC2)CC1)C1=Cc2cc(Br)ccc2OC1` are 57.2548% and 1440 nM. The corresponding values for `O=C(NC1CCN(Cc2ccccc2)CC1)c1cc(C(=O)NC2CCN(Cc3ccccc3)CC2)cc(C(=O)NC2CCN(Cc3ccccc3)CC2)c1` are 82.7495% and 288 nM. With `CC(=O)c1sc(NC(=O)Nc2ccc(C)cc2C)nc1C`, the “Growth Inhibition” value in assay [1] is on record as 12.9136%. On to `Cn1c(C(=O)c2cccc3ccccc23)nc2ccccc21`, for which the “Growth Inhibition” value in assay [1] is on record as -3.612%.

Turning to `Oc1ccc2ccccc2c1CNc1nc2ccccc2[nH]1`, in assay [1], the “Growth Inhibition” value amounted to 8.4186%. On the same count and under the same terms, in the case of `O=C(Nc1ccc(-c2nc3ccccc3[nH]2)cc1)c1ccc(Cl)c(Cl)c1` it was 11.2736%. Take `COc1ccc(C2NCCc3c2[nH]c2ccccc32)cc1CN1CCN(c2ccc(F)cc2)CC1.Cl` (stereo not given): in assay [1], the “Growth Inhibition” value came out at 75.07%. The IC50 in assay [2] is 3410 nM. `OCCNc1nc(Nc2ccc(Cl)c(Cl)c2)nc2ccccc12`: in assay [1], the “Growth Inhibition” value is 18.8816%. The same measure, in the same setting: as for `Nc1ccc(-c2nc3cc(Oc4ccc(Oc5ccc6[nH]c(-c7ccc(N)cc7)nc6c5)cc4)ccc3[nH]2)cc1`, the figure is 21.5644%. Still for that read-out and setting: as for `Cc1cc(N(C)C)nc(Nc2ccc(NC(=O)Nc3ccccc3)cc2)n1`, the figure is 16.1034%. Turning to `Cl.Clc1cc(Br)ccc1-c1ccc(CNCC2CCNCC2)o1`, the “Growth Inhibition” value in assay [1] is listed as 86.2708%. Further, in assay [2], the IC50 is 407 nM.

Regarding `Cc1ccc2cc3c(N)c4c(C)ccc(C)c4nc3nc2c1`, the “Growth Inhibition” value in assay [1] came out at 80.372%. For the same compound, the IC50 in assay [2] was 2720 nM. As to `COc1ccc(C(=O)C(CCC(CNC(C)(C)C)C(=O)c2ccc(OC)cc2)CNC(C)(C)C)cc1` (stereo not given), in assay [1], the “Growth Inhibition” value is recorded as 56.45%. The IC50 in assay [2] is 3220 nM.

As for `CC(C)CCNCC(O)Cn1c2ccccc2c2ccccc21.Cl` (stereo not given), in assay [1], the “Growth Inhibition” value is given as 62.6796%. Also, the IC50 in assay [2] is 2830 nM.

As to `COc1cc(C(=O)ON=C(N)Cc2cccc3ccccc23)cc(OC)c1OC`, the “Growth Inhibition” value in assay [1] was found to be 60.0732%. In assay [2], the IC50 is 4040 nM. The corresponding values for `COc1ccccc1NC1=C(N2CCCCC2)C(=O)c2ccccc2C1=O` are 50.0502% and 236 nM. The corresponding values for `Oc1c(C(Nc2ccccn2)c2cccc(Oc3ccccc3)c2)ccc2cccnc12` (stereo not given) are 50.44% and 3890 nM.

Regarding `COc1cc(-c2nc(-c3ccccc3)c(-c3ccccc3)[nH]2)cc(OC)c1O`, the “Growth Inhibition” value in assay [1] is reported as 13.9122%. With `Cc1ccc(Nc2nc(N)c3ccccc3n2)cc1Cl`, in assay [1], the “Growth Inhibition” value came out at 23.2734%.

`OC(CNC1CCCCC1)Cn1c2ccc(I)cc2c2cc(I)ccc21` (stereo not given): the “Growth Inhibition” value in assay [1] came out at 78.0014%. The IC50 in assay [2] is 758 nM.

On to `Cc1cc(C)c2nc(N3CCC(C(=O)NCCCN4CCC(N5CCCCC5)CC4)CC3)sc2c1`, for which the “Growth Inhibition” value in assay [1] came out at 59.2216%. In addition, the IC50 in assay [2] is 1930 nM. On to `CCc1ccc(CNCC(O)c2ccccc2)cc1.Cl` (stereo not given), for which the “Growth Inhibition” value in assay [1] is 26.7%. In the case of `COc1cccc(C(=O)NC(c2ccc(C)cc2)c2cc(Cl)c3cccnc3c2O)c1` (stereo not given), the “Growth Inhibition” value in assay [1] is 50.8652%. Also, the IC50 in assay [2] was 3090 nM. For `CC(C)OCc1cc(CN2CCN(c3cccc(Cl)c3)CC2)c(O)c2ncccc12`, in assay [1], the “Growth Inhibition” value was found to be 56.857%. Besides, the IC50 in assay [2] was 3280 nM. In the case of `CSc1ccccc1C(=O)Nc1nc(-c2ccccn2)cs1`, the “Growth Inhibition” value in assay [1] was 29.8315%. Further, in assay [2], the IC50 was 4610 nM. In the case of `Br.CCn1c2c(c(=N)c3c1CCC3)CCCC2`, the “Growth Inhibition” value in assay [1] is recorded as -4.7115%. Take `CCCOCc1cc(CN2CCN(c3cccc(Cl)c3)CC2)c(O)c2ncccc12`: in assay [1], the “Growth Inhibition” value turned out to be 80.5%. Besides, the IC50 in assay [2] is 3800 nM. As for `Cc1ccc2c(C)nc(Nc3nc(C)cc(-c4ccccc4)n3)nc2c1`, the “Growth Inhibition” value in assay [1] is given as -3.9148%. On the same count and under the same terms, as for `CCOc1ccc(Nc2ccnc3cc(Cl)ccc23)cc1`, the figure is 2.6298%. `Oc1c(CN2CCN(c3ccccc3F)CC2)cc(Br)c2cccnc12`: the “Growth Inhibition” value in assay [1] is reported as 75.8386%. For the same compound, the IC50 in assay [2] was 1900 nM. The corresponding values for `CCCc1c(C)nc2ccc(Br)cc2c1O` are 51.0245% and 8900 nM. Take `CC1=C(CC(=O)c2cccc([N+](=O)[O-])c2)C(=O)c2ccccc2C1=O`: in assay [1], the “Growth Inhibition” value worked out at 70.075%. The IC50 in assay [2] is 902 nM. With `Br.Cc1ccc(C)c(-c2csc(Nc3ccc(C)c(C)c3)n2)c1`, the “Growth Inhibition” value in assay [1] is given as -6.2508%.

Take `CC1CC2=C(CC1CNCCCN(C)C)C(C)(C)CCC2` (stereo not given): the “Growth Inhibition” value in assay [1] is listed as 91.9455%. Moreover, in assay [2], the IC50 was 576 nM. As to `CN(C)c1ccc(N=Cc2ccc(N3CCOCC3)cc2)cc1`, the “Growth Inhibition” value in assay [1] was 78.9978%. Moreover, in assay [2], the IC50 was 4160 nM. `CCCn1c(=N)c(C(=O)NC2CCCCC2)cc2c(=O)n3cccc(C)c3nc21`: in assay [1], the “Growth Inhibition” value is 2.4486%.

Consider `Nc1ccn([C@@H]2O[C@H](CO)[C@@H](O)[C@H]2O)c(=O)n1` [CYTIDINE], for which, in assay [1], the “Growth Inhibition” value was found to be 13.5248%. Same read-out and setting: as for `O=C(Nc1cccc(C2=NCCN2)c1)Nc1cccc(C2=NCCN2)c1` [IMIDOCARB], the figure is 24.1816%. With `CN(C)c1ccc(C(O)(c2ccc(N(C)C)cc2)c2ccc(N(C)C)cc2)cc1` [METHYLROSANILINE], the “Growth Inhibition” value in assay [1] was determined as 76.3425%. The IC50 in assay [2] was 158 nM.
